Laboratory results: US10745397B2, “1-Substituted 1,2,3,4-tetrahydro-1,7-naphthyridin-8-amine derivatives and their use as EP4 receptor antagonists” (TAKEDA PHARMACEUTICAL COMPANY LIMITED, priority 2015, dated 2020)

Columns and labels:
human EP4 receptor = target: T1, human EP4 receptor (Homo sapiens, UniProt P35408); assay: hEP4 radioligand binding assay ([3H] PGE2 competitive binding, membrane fractions); conditions: 300 nM compound; 1 nM [3H] PGE2
T1 construct: expressed in transfected cells; host or cells: FreeStyle293 (HEK293F) cells, transient transfection with pcDNA3.1(+), total membrane fraction
T1 sequence (P35408 whole entry): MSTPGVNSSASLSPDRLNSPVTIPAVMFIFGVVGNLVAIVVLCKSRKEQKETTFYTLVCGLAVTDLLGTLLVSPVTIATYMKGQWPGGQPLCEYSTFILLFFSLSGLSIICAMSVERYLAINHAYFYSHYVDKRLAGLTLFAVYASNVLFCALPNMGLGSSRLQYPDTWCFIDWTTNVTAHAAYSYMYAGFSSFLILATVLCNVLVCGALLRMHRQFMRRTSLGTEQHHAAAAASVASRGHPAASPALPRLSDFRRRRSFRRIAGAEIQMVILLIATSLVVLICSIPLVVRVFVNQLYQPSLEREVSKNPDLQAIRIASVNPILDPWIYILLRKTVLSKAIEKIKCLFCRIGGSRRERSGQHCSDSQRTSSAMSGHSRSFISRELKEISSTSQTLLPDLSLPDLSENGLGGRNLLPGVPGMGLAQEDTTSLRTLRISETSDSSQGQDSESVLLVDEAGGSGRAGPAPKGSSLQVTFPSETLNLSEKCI
Source text: The full-length coding sequences for human EP1 (NM_000955), human EP2 (NM_000956), human EP3 (NM_198717) and human EP4 (NM_000958) were cloned into pcDNA3.1(+) vector (Life Technologies, CA, USA). In order to prepare overexpressed EP 1-4 membrane in Freestyle293 cells (Life Technologies, CA, USA), the pcDNA3.1(+) vector encoding a cDNA of the relevant gene was transiently transfected into FreeStyle293 cells using 293Fectin (Life Technologies, CA, USA) according to the manufacturer instruction manual. After 2 days, cultured cells were centrifuged (1,000×g, 10 min, 4° C.) and pellets homogenized by a probe sonicator (Sonics vibracell, Sonics and Materials Inc., USA; 31% Amp, 5 sec pulse, Imin interval, 4 cycles) in ice-cold 50 mM Tris-HCl buffer (pH 7.5 at 25° C.) containing 0.5 mM EDTA, 250 mM Sucrose and 10 mM MgCl2. Cell homogenates were centrifuged (890×g, 10 min, 4° C.), and the supernatant was recovered. Total membrane fractions were isolated by ultracentrifugation (140,000×g, 60 min, 4° C.). Pellets were re-suspended in the same buffer, and stored at −80° C. until use. The protein concentration in homogenate was determined with the BCA Protein Assay Kit (Pierce Biotechnology, Inc., IL, USA) according to the manufacturer protocol.
The binding affinity of the compounds was evaluated using a competitive radioligand binding assay which measured the specific binding of [3H] PGE2 to the human EP4 receptor. Briefly, varying concentrations of NCEs were incubated with cell membrane fractions generated HEK293F cells transiently transfected with human EP4 receptor as described above. Each reaction consisted of 10 μg membrane protein and NCE in 50 mM Tris-HCl, pH-6.0 by NaOH, 10 mM MgCl2 and 0.5 mM EDTA assay buffer. Radioligand, [3H] PGE2 (American Radiochemicals Inc. Specific Activity 180 Ci/mmol), at a final of 1 nM was added to each reaction where the final assay volume was 200 μL and concentration of DMSO was adjusted to 1%. Appropriate controls included total binding in the assay (vehicle control) and control for non-specific binding. Non-specific binding was evaluated by incubating the hEP4 protein with 10 μM unlabeled PGE2 under the same assay conditions as NCEs. The reaction was incubated at room temperature for 2 hours and terminated by harvesting the reaction contents to a PEI coated GF/C filter plate (PerkinElmer). The plate was washed four times with cold 50 mM Tris-HCl, pH-7.5 wash buffer and dried at 50° C. for 2 hours or at 37° C. overnight. [3H] PGE2 bound to the protein was quantified by the addition of 25 μL of Microscint PS (PerkinElmer) and plate was read on MicroBeta2 liquid Scintillation and luminescence counter (PerkinElmer). Data was analyzed using GraphPad Prism 5 (GraphPad Software Inc., San Diego, Calif.) where non-specific binding was normalized to 0% specific binding of [3]PGE2 and vehicle control (DMSO) was normalized to 100% specific binding of [3]PGE2. Binding affinity of NCEs, Ki, was generated using One site—Fit Ki equation in GraphPad Prism 5.

[1] = target: T2, hEP4 (C6 glioma cells overexpressing hEP4) (Homo sapiens, UniProt P35408); assay: hEP4 cell based assay (cAMP), inhibition of PGE2 induced cAMP, HTRF; conditions: 1 μM compound, PGE2 at EC80
T2 construct: host or cells: C6 glioma cells overexpressing hEP4
T2 sequence (P35408 whole entry): as above
Protocol: The functional assay for hEP4 activation and inhibition was carried out via the quantitative determination of agonist, PGE2, induced cAMP response using HTRF in a competitive immunoassay (Cisbio dynamic 2 kit). NCEs at varying concentrations were evaluated for inhibition of PGE2 induced increase in cAMP. Briefly, C6 glioma cells overexpressing hEP4 (Takeda) were cultured in DMEM (low glucose, pyruvate), 10% FBS (Gibco) and PenStep. The cells were harvested on the day of the assay, washed with HBSS+10 mM HEPES (pH 7.4)+0.1% BSA buffer and pre-incubated with varying concentrations of NCE. Each reaction contained 7000 cells and NCEs in HBSS+10 mM HEPES+0.1% BSA assay buffer along with PDE inhibitors IBMX and Ro 20-1724 (final concentration of each inhibitor […]). Following 15 min pre-incubation, the cells were treated with EC80 concentration of agonist PGE2 for 30 min to induce cAMP. Final volume of the assay was 6 μL and DMSO concentration was maintained at 1%. The reaction was terminated with the addition of cAMP labeled with the dye d2 in lysis buffer according to manufacturers' protocol. This was followed by the addition of the anti-cAMP antibody labeled with Cryptate according to the manufacturers' protocol. The reaction was incubated at room temperature in dark for 45 min and the plate was evaluated for fluorescence at 665 nm (FRET) and 620 nm (cryptate emission) on a Flexstation III microplate reader (Molecular Devices, Sunnyvale, Calif.) Ex max: 313 nm; Em1: 620 nm; Em2: 665 nm. Data was analyzed using GraphPad Prism 5 (GraphPad Software Inc., San Diego, Calif.) where cells treated with agonist (EC80) was normalized to 0% inhibition of hEP4 and cells treated with buffer (no agonist) was normalized to 100% inhibition of hEP4. IC50 of NCEs was generated using non-linear regression—Log(inhibitor) vs. response equation in GraphPad Prism 5.

SMILES | inhibition at 0.3 µM (human EP4 receptor) | inhibition at 1 µM [1]
C[C@H](Nc1nccc2c1N(Cc1ccc(-c3ccccc3)cc1)CCO2)c1ccc(C(=O)O)cc1 [Example B30, 4-[(1S)-1-[[4-[(4-phenylphenyl)methyl]-2,3-dihydropyrido[4,3-b][1,4]oxazin-5-yl]amino]ethyl]benzoic acid] | 87% | 77%
C[C@H](Nc1nccc2c1N(Cc1ccc(C(F)(F)F)o1)CCO2)c1ccc(C(=O)O)cc1 [Example B31, 4-[(1S)-1-[[4-[[5-(trifluoromethyl)-2-furyl]methyl]-2,3-dihydropyrido[4,3-b][1,4]oxazin-5-yl]amino]ethyl]benzoic acid] | 92% | 98%
C[C@@H](Nc1nccc2c1N(Cc1ccc(C(F)(F)F)cc1)CCO2)c1ccc(C(=O)O)cc1 [Example B32, 4-[(1R)-1-[[4-[[4-(trifluoromethyl)phenyl]methyl]-2,3-dihydropyrido[4,3-b][1,4]oxazin-5-yl]amino]ethyl]benzoic acid] | 53% | 47%
C[C@@H](Nc1nccc2c1N(Cc1cccc(Cl)c1)CCO2)c1ccc(C(=O)O)cc1 [Example B33, 4-[(1R)-1-[[4-[(3-chlorophenyl)methyl]-2,3-dihydropyrido[4,3-b][1,4]oxazin-5-yl]amino]ethyl]benzoic acid] | 66% | 36%
C[C@H](Nc1nccc2c1N(Cc1ccc(C(F)(F)F)cc1)CCC2)c1ccc(C(=O)O)cc1 [Example B37, 4-[(1S)-1-[[1-[[4-(trifluoromethyl)phenyl]methyl]-3,4-dihydro-2H-1,7-naphthyridin-8-yl]amino]ethyl]benzoic acid] | 97% | 97%
C[C@H](Nc1nccc2c1N(CC1CCCCC1)CCO2)c1ccc(C(=O)O)cc1 [Example B39, 4-[(1S)-1-[[4-(cyclohexylmethyl)-2,3-dihydropyrido[4,3-b][1,4]oxazin-5-yl]amino]ethyl]benzoic acid] | 100% | 93%
C[C@H](Nc1nccc2c1N(CCc1cccc(Cl)c1)CCO2)c1ccc(C(=O)O)cc1 [Example B40, 4-[(1S)-1-[[4-[2-(3-chlorophenyl)ethyl]-2,3-dihydropyrido[4,3-b][1,4]oxazin-5-yl]amino]ethyl]benzoic acid] | 80% | 85%
C[C@H](Nc1nccc2c1N(Cc1ccc(F)c(F)c1)CCC2)c1ccc(C(=O)O)cc1 [Example B44, 4-[(1S)-1-[[1-[(3,4-difluorophenyl)methyl]-3,4-dihydro-2H-1,7-naphthyridin-8-yl]amino]ethyl]benzoic acid] | 93% | 92%
C[C@H](Nc1nccc2c1N(Cc1cccc(Cl)c1)CCC2)c1ccc(C(=O)O)cc1 [Example B45, 4-[(1S)-1-[[1-[(3-chlorophenyl)methyl]-3,4-dihydro-2H-1,7-naphthyridin-8-yl]amino]ethyl]benzoic acid] | 100% | 98%
Cc1cnc(N[C@@H](C)c2ccc(C(=O)O)cc2)c2c1OCCN2Cc1cccc(C(F)(F)F)c1 [Example B46, 4-[(1S)-1-[[8-Methyl-4-[[3-(trifluoromethyl)phenyl]methyl]-2,3-dihydropyrido[4,3-b][1,4]oxazin-5-yl]amino]ethyl]benzoic acid] | 87% | 95%

Results, then the compound that gave them:

inhibition at 0.3 µM (human EP4 receptor) | inhibition at 1 µM [1] | SMILES
85% | 98% | C[C@H](Nc1nccc2c1N(Cc1ccc(C(F)(F)F)cc1)CCO2)c1ccc(C(N)=O)cc1 [Example D1, 4-[(1S)-1-[[4-[[4-(Trifluoromethyl)phenyl]methyl]-2,3-dihydropyrido[4,3-b][1,4]oxazin-5-yl]amino]ethyl]benzamide]
87% | 92% | CONC(=O)c1ccc([C@H](C)Nc2nccc3c2N(Cc2ccc(C(F)(F)F)cc2)CCO3)cc1 [Example D2, N-Methoxy-4-[(1S)-1-[[4-[[4-(trifluoromethyl)phenyl]methyl]-2,3-dihydropyrido[4,3-b][1,4]oxazin-5-yl]amino]ethyl]benzamide]
73% | 84% | CNC(=O)c1ccc([C@H](C)Nc2nccc3c2N(Cc2ccc(C(F)(F)F)cc2)CCO3)cc1 [Example D3, N-methyl-4-[(1S)-1-[[4-[[4-(trifluoromethyl)phenyl]methyl]-2,3-dihydropyrido[4,3-b][1,4]oxazin-5-yl]amino]ethyl]benzamide]
92% | 93% | CCONC(=O)c1ccc([C@H](C)Nc2nccc3c2N(Cc2ccc(C(F)(F)F)cc2)CCO3)cc1 [Example D4, N-ethoxy-4-[(1S)-1-[[4-[[4-(trifluoromethyl)phenyl]methyl]-2,3-dihydropyrido[4,3-b][1,4]oxazin-5-yl]amino]ethyl]benzamide]
88% | 90% | C[C@H](Nc1nccc2c1N(Cc1ccc(C(F)(F)F)cc1)CCO2)c1ccc(C(=O)NOCc2ccccc2)cc1 [Example D5, N-benzyloxy-4-[(1S)-1-[[4-[[4-(trifluoromethyl)phenyl]methyl]-2,3-dihydropyrido[4,3-b][1,4]oxazin-5-yl]amino]ethyl]benzamide]
92% | 91% | C[C@H](Nc1nccc2c1N(Cc1ccc(C(F)(F)F)cc1)CCO2)c1ccc(C#N)cc1 [Example E1, 4-[(1S)-1-[[4-[[4-(Trifluoromethyl)phenyl]methyl]-2,3-dihydropyrido[4,3-b][1,4]oxazin-5-yl]amino]ethyl]benzonitrile]
100% | 90% | C[C@H](Nc1nccc2c1N(Cc1ccc(C(F)(F)F)cc1)CCO2)c1ccc(-c2nnn[nH]2)cc1 [Example F1, N-[(1S)-1-[4-(1H-Tetrazol-5-yl)phenyl]ethyl]-4-[[4-(trifluoromethyl)phenyl]methyl]-2,3-dihydropyrido[4,3-b][1,4]oxazin-5-amine]
100% | 92% | C[C@H](Nc1ncc(Cl)c2c1N(Cc1ccc(C(F)(F)F)cc1)CCO2)c1ccc(C(=O)O)cc1 [Example G1, 4-[(1S)-1-[[8-Chloro-4-[[4-(trifluoromethyl)phenyl]methyl]-2,3-dihydropyrido[4,3-b][1,4]oxazin-5-yl]amino]ethyl]benzoic acid]
